Results from PubChem BioAssay (NCI).
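Briefly, cells in 96-well plates were exposed to five compound concentrations for 48 h, and endpoints were estimated by linear interpolation. GI50 is the concentration that inhibits growth by half. TGI denotes the concentration required for complete inhibition of growth.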

Legend:
Experiment in all cases: NCI tumour cell line growth inhibition, 48 h
HOP-92 NSCLC = system: HOP-92 NSCLC
HCT-15 colon = system: HCT-15 colon
NCI-H23 lung = system: NCI-H23 lung
UACC-62 melanoma = system: UACC-62 melanoma
RPMI-8226 leukemia = system: RPMI-8226 leukemia
MOLT-4 leukemia = system: MOLT-4 leukemia
EKVX NSCLC = system: EKVX NSCLC
UACC-257 melanoma = system: UACC-257 melanoma
U251 CNS = system: U251 CNS
SK-MEL-2 melanoma = system: SK-MEL-2 melanoma
NCI-H460 lung = system: NCI-H460 lung
SK-OV-3 ovarian = system: SK-OV-3 ovarian
M14 melanoma = system: M14 melanoma
HS 578T breast = system: HS 578T breast
NCI/ADR-RES ovarian = system: NCI/ADR-RES ovarian
CCRF-CEM leukemia = system: CCRF-CEM leukemia
LOX IMVI melanoma = system: LOX IMVI melanoma
SN12C renal = system: SN12C renal
UO-31 renal = system: UO-31 renal
OVCAR-3 ovarian = system: OVCAR-3 ovarian
SF-539 CNS = system: SF-539 CNS
OVCAR-8 ovarian = system: OVCAR-8 ovarian
SF-268 CNS = system: SF-268 CNS
DU-145 prostate = system: DU-145 prostate
IGROV1 ovarian = system: IGROV1 ovarian
SK-MEL-5 melanoma = system: SK-MEL-5 melanoma
MCF7 breast = system: MCF7 breast
T-47D breast = system: T-47D breast
OVCAR-5 ovarian = system: OVCAR-5 ovarian
BT-549 breast = system: BT-549 breast
MDA-MB-435 = system: MDA-MB-435
SF-295 CNS = system: SF-295 CNS
A549 NSCLC = system: A549 NSCLC
NCI-H226 lung = system: NCI-H226 lung
HCT-116 colon = system: HCT-116 colon
K-562 leukemia = system: K-562 leukemia
CAKI-1 renal = system: CAKI-1 renal
SW-620 colon = system: SW-620 colon
RXF 393 renal = system: RXF 393 renal
SNB-75 CNS = system: SNB-75 CNS
COLO 205 colon = system: COLO 205 colon
786-0 renal = system: 786-0 renal
OVCAR-4 ovarian = system: OVCAR-4 ovarian
SNB-19 CNS = system: SNB-19 CNS
MDA-MB-231 breast = system: MDA-MB-231 breast
HCC-2998 colon = system: HCC-2998 colon
SK-MEL-28 melanoma = system: SK-MEL-28 melanoma
A498 renal = system: A498 renal
NCI-H522 lung = system: NCI-H522 lung
HOP-62 NSCLC = system: HOP-62 NSCLC
PC-3 prostate = system: PC-3 prostate
HT29 colon = system: HT29 colon

`Nc1nc2cc3ccc(C4CC(O)C(CO)O4)cc3cc2c(=O)[nH]1` (centres undefined) showed a GI50 (HOP-92 NSCLC) greater than 100 µM, a TGI (HOP-92 NSCLC) greater than 100 µM and a GI50 (HCT-15 colon) greater than 100 µM. The TGI (HCT-15 colon) was greater than 100 µM, the GI50 (NCI-H23 lung) was greater than 100 µM and the TGI (NCI-H23 lung) was greater than 100 µM. For the same molecule, the GI50 (UACC-62 melanoma) was greater than 100 µM, the TGI (UACC-62 melanoma) was greater than 100 µM and the GI50 (RPMI-8226 leukemia) was greater than 100 µM. It also gave a TGI (RPMI-8226 leukemia) greater than 100 µM, a GI50 (MOLT-4 leukemia) greater than 100 µM and a TGI (MOLT-4 leukemia) greater than 100 µM. The GI50 (EKVX NSCLC) was greater than 100 µM, the TGI (EKVX NSCLC) was greater than 100 µM and the GI50 (UACC-257 melanoma) was greater than 100 µM. The TGI (UACC-257 melanoma) was greater than 100 µM, the GI50 (U251 CNS) was greater than 100 µM and the TGI (U251 CNS) was greater than 100 µM. The GI50 (SK-MEL-2 melanoma) was 0.0927 µM, the TGI (SK-MEL-2 melanoma) was greater than 100 µM and the GI50 (NCI-H460 lung) was greater than 100 µM. The TGI (NCI-H460 lung) was greater than 100 µM, the GI50 (SK-OV-3 ovarian) was greater than 100 µM and the TGI (SK-OV-3 ovarian) was greater than 100 µM. It also gave a GI50 (M14 melanoma) greater than 100 µM, a TGI (M14 melanoma) greater than 100 µM and a GI50 (HS 578T breast) greater than 100 µM. For the same molecule, the TGI (HS 578T breast) was greater than 100 µM, the GI50 (NCI/ADR-RES ovarian) was greater than 100 µM and the TGI (NCI/ADR-RES ovarian) was greater than 100 µM. For the same molecule, the GI50 (CCRF-CEM leukemia) was 41.4 µM, the TGI (CCRF-CEM leukemia) was greater than 100 µM and the GI50 (LOX IMVI melanoma) was greater than 100 µM. The TGI (LOX IMVI melanoma) was greater than 100 µM, the GI50 (SN12C renal) was greater than 100 µM and the TGI (SN12C renal) was greater than 100 µM. For the same molecule, the GI50 (UO-31 renal) was 94.6 µM, the TGI (UO-31 renal) was greater than 100 µM and the GI50 (OVCAR-3 ovarian) was greater than 100 µM. The TGI (OVCAR-3 ovarian) was greater than 100 µM, the GI50 (SF-539 CNS) was greater than 100 µM and the TGI (SF-539 CNS) was greater than 100 µM. For the same molecule, the GI50 (OVCAR-8 ovarian) was greater than 100 µM, the TGI (OVCAR-8 ovarian) was greater than 100 µM and the GI50 (SF-268 CNS) was greater than 100 µM. The TGI (SF-268 CNS) was greater than 100 µM, the GI50 (DU-145 prostate) was greater than 100 µM and the TGI (DU-145 prostate) was greater than 100 µM. The GI50 (IGROV1 ovarian) was greater than 100 µM, the TGI (IGROV1 ovarian) was greater than 100 µM and the GI50 (SK-MEL-5 melanoma) was greater than 100 µM. For the same molecule, the TGI (SK-MEL-5 melanoma) was greater than 100 µM, the GI50 (MCF7 breast) was greater than 100 µM and the TGI (MCF7 breast) was greater than 100 µM. It also gave a GI50 (T-47D breast) greater than 100 µM, a TGI (T-47D breast) greater than 100 µM and a GI50 (OVCAR-5 ovarian) greater than 100 µM. The TGI (OVCAR-5 ovarian) was greater than 100 µM, the GI50 (BT-549 breast) was greater than 100 µM and the TGI (BT-549 breast) was greater than 100 µM. For the same molecule, the GI50 (MDA-MB-435) was greater than 100 µM, the TGI (MDA-MB-435) was greater than 100 µM and the GI50 (SF-295 CNS) was greater than 100 µM. The TGI (SF-295 CNS) was greater than 100 µM, the GI50 (A549 NSCLC) was greater than 100 µM and the TGI (A549 NSCLC) was greater than 100 µM. The GI50 (NCI-H226 lung) was greater than 100 µM, the TGI (NCI-H226 lung) was greater than 100 µM and the GI50 (HCT-116 colon) was greater than 100 µM. The TGI (HCT-116 colon) was greater than 100 µM, the GI50 (K-562 leukemia) was greater than 100 µM and the TGI (K-562 leukemia) was greater than 100 µM. For the same molecule, the GI50 (CAKI-1 renal) was greater than 100 µM, the TGI (CAKI-1 renal) was greater than 100 µM and the GI50 (SW-620 colon) was greater than 100 µM. For the same molecule, the TGI (SW-620 colon) was greater than 100 µM, the GI50 (RXF 393 renal) was greater than 100 µM and the TGI (RXF 393 renal) was greater than 100 µM. It also gave a GI50 (SNB-75 CNS) of 49.6 µM, a TGI (SNB-75 CNS) greater than 100 µM and a GI50 (COLO 205 colon) greater than 100 µM. The TGI (COLO 205 colon) was greater than 100 µM, the GI50 (786-0 renal) was greater than 100 µM and the TGI (786-0 renal) was greater than 100 µM. The GI50 (OVCAR-4 ovarian) was greater than 100 µM, the TGI (OVCAR-4 ovarian) was greater than 100 µM and the GI50 (SNB-19 CNS) was greater than 100 µM. For the same molecule, the TGI (SNB-19 CNS) was greater than 100 µM, the GI50 (MDA-MB-231 breast) was greater than 100 µM and the TGI (MDA-MB-231 breast) was greater than 100 µM. The GI50 (HCC-2998 colon) was greater than 100 µM, the TGI (HCC-2998 colon) was greater than 100 µM and the GI50 (SK-MEL-28 melanoma) was greater than 100 µM. The TGI (SK-MEL-28 melanoma) was greater than 100 µM, the GI50 (A498 renal) was 26.8 µM and the TGI (A498 renal) was greater than 100 µM. For the same molecule, the GI50 (NCI-H522 lung) was greater than 100 µM, the TGI (NCI-H522 lung) was greater than 100 µM and the GI50 (HOP-62 NSCLC) was greater than 100 µM. It also gave a TGI (HOP-62 NSCLC) greater than 100 µM, a GI50 (PC-3 prostate) greater than 100 µM and a TGI (PC-3 prostate) greater than 100 µM. For the same molecule, the GI50 (HT29 colon) was greater than 100 µM and the TGI (HT29 colon) was greater than 100 µM.
